This is an account of results in patent publication US20260062443A1 (ALEXION PHARMACEUTICALS, INC., priority 2022, published 2026).

The IC50 is the concentration at which inhibition is half-maximal.

The target in the assay is T1, Human complement C1s enzyme (Homo sapiens, UniProt P09871).
T1 sequence (P09871 438-688 limits assumed): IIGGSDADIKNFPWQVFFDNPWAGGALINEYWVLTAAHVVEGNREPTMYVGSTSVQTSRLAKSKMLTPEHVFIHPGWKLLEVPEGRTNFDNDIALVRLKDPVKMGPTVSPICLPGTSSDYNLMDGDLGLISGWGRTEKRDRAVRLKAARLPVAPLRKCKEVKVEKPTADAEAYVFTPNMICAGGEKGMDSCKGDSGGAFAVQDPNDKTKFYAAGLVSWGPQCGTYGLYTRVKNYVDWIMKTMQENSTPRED
T1 sequence (P09871 16-437 partner limits assumed): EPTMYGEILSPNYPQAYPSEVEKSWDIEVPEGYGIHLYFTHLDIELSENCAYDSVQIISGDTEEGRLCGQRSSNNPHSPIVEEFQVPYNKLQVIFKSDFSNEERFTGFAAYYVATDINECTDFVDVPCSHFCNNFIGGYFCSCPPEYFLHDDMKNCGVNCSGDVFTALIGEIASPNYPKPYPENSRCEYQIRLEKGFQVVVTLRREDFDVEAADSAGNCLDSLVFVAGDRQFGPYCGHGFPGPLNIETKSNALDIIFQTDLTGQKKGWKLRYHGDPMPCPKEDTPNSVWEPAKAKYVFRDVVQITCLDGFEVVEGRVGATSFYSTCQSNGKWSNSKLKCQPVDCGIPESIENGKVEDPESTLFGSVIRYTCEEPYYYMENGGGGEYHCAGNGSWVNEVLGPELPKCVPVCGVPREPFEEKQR
In words: Human C1s enzyme assay. It counts as biochemical. The note with it: human complement C1s enzyme 1.16 nM, substrate Z-L-Lys-SBzl 100 μM, 5 min preincubation; read-out: IC50 (Stars), C1s Inhibiting Activity. The gist of the method: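 IC50 from nonlinear regression of reaction rates versus compound concentration, with rates taken from A405 recorded at 30 s intervals over 30 min after adding 100 μM Z-L-Lys-SBzl plus 100 μM DTNB. Enzyme was human C1s purified from serum, 1.16 nM, given 5 min compound preincubation at room temperature, pH 7.5 Tris/1 M NaCl.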
On to `O=C(NCC(=O)N1C[C@@](F)(CF)C[C@H]1C(=O)NCc1cc2cnccc2[nH]1)c1ccc2c(c1)-c1ccccc1C2(F)F` [Compound 6, (2S,4R)-N-((1H-pyrrolo[3,2-c]pyridin-2-yl)methyl)-1-((9,9-difluoro-9H-fluorene-3-carbonyl)glycyl)-4-fluoro-4-(fluoromethyl)pyrrolidine-2-carboxamide], for which the IC50 is less than 100 nM.
Turning to `CCc1ccc(Oc2cccc(C(=O)NCC(=O)N3C[C@H](OC(F)F)C[C@H]3C(=O)NCc3cc4cnccc4[nH]3)c2)cc1` [Compound 293, (2S,4R)-N-((1H-pyrrolo[3,2-c]pyridin-2-yl)methyl)-4-(difluoromethoxy)-1-((3-(4-ethylphenoxy)benzoyl)glycyl) pyrrolidine-2-carboxamide], the IC50 was less than 100 nM.
With `C[C@@H](NC(=O)[C@@H]1C[C@]2(C)C[C@@H]2N1C(=O)CNC(=O)c1ccc(Oc2ccccc2)cc1)c1cc(B(O)O)cs1` [Compound 163, (5-((R)-1-((1S,3S,5S)-5-methyl-2-((4-phenoxybenzoyl)glycyl)-2-azabicyclo[3.1.0]hexane-3-carboxamido)ethyl)thiophen-3-yl)boronic acid] the figure was greater than 1000 nM.
Turning to `CC(C)S(=O)(=O)[C@@H]1C[C@@H](C(=O)N[C@H](C)c2cc3cnccc3[nH]2)N(C(=O)CNC(=O)c2ccc3c(c2)Oc2ccccc2S3)C1` [Compound 133, (2S,4R)-N-((R)-1-(1H-pyrrolo[3,2-c]pyridin-2-yl)ethyl)-4-(isopropylsulfonyl)-1-((phenoxathiine-3-carbonyl)glycyl)pyrrolidine-2-carboxamide], the IC50 is less than 100 nM.
On to `C[C@@]12C[C@@H]1N(C(=O)CNC(=O)c1cccc(Oc3ccccc3)c1)[C@H](C(=O)NCc1cc3cnccn3c1)C2` [Compound 277, (1S,3S,5S)-5-methyl-2-((3-phenoxybenzoyl)glycyl)-N-(pyrrolo[1,2-a]pyrazin-7-ylmethyl)-2-azabicyclo[3.1.0]hexane-3-carboxamide], for which the IC50 was less than 100 nM.
Take `CC(C)(C)c1ccc(Oc2cccc(C(=O)NCC(=O)N3C[C@H](OC(F)F)C[C@H]3C(=O)NCc3cc4cnccc4[nH]3)c2)cc1` [Compound 273, (2S,4R)-N-((1H-pyrrolo[3,2-c]pyridin-2-yl)methyl)-1-((3-(4-(tert-butyl)phenoxy)benzoyl)glycyl)-4-(difluoromethoxy)pyrrolidine-4-carboxamide]: the IC50 was less than 100 nM.
On to `O=C(NCC(=O)N1C[C@H](OC(F)F)C[C@H]1C(=O)NCc1cc2cnccc2[nH]1)c1ccc(F)c(Oc2ccccc2)c1` [Compound 304, (2S,4R)-N-((1H-pyrrolo[3,2-c]pyridin-2-yl)methyl)-4-(difluoromethoxy)-1-((4-fluoro-3-phenoxybenzoyl)glycyl)pyrrolidine-2-carboxamide], for which the IC50 is less than 100 nM.
With `CC(NC(=O)[C@@H]1CC2(CN1C(=O)CNC(=O)c1ccc3c(c1)Oc1ccccc1S3)OCCO2)c1cc2cnccc2[nH]1` (stereo in doubt) [Compound 102, (S)-N-((S)-1-(1H-pyrrolo[3,2-c]pyridin-2-yl)ethyl)-7-((phenoxathiine-3-carbonyl)glycyl)-1,4-dioxa-7-azaspiro[4.4]nonane-8-carboxamide] the figure was less than 100 nM; with `COC[C@@]1(F)C[C@@H](C(=O)N[C@@H](C)c2cc3cnccc3[nH]2)N(C(=O)CNC(=O)c2ccc(Oc3ccccc3)cc2)C1` [Compound 21, (2S,4R)-N-((S)-1-(1H-pyrrolo[3,2-c]pyridin-2-yl)ethyl)-4-fluoro-4-(methoxymethyl)-1-((4-phenoxybenzoyl)glycyl)pyrrolidine-2-carboxamide], greater than 1000 nM; with `O=C(NCC(=O)N1CC2(C[C@H]1C(=O)NCc1cc3cnccc3s1)OCCO2)c1ccc2c(c1)Oc1ccccc1S2` [Compound 54, (S)-7-((phenoxathiine-3-carbonyl)glycyl)-N-(thieno[3,2-c]pyridin-2-ylmethyl)-1,4-dioxa-7-azaspiro[4.4]nonane-8-carboxamide], less than 100 nM.
Consider `O=C(NCC(=O)N1C[C@H](OC(F)F)C[C@H]1C(=O)NCc1cc2cnccc2[nH]1)c1ccc2c(c1)Oc1ccccc1S2` [Compound 36, (2S,4R)-N-((1H-pyrrolo[3,2-c]pyridin-2-yl)methyl)-4-(difluoromethoxy)-1-((phenoxathiine-3-carbonyl)glycyl)pyrrolidine-2-carboxamide], for which the IC50 was less than 100 nM.
With `Cc1ccc(Oc2cccc(C(=O)NCC(=O)N3C[C@H](OC(F)F)C[C@H]3C(=O)N[C@H](C)c3cc4cnccc4[nH]3)c2)c(F)c1` [Compound 312, (2S,4R)-N-((R)-1-(1H-pyrrolo[3,2-c]pyridin-2-yl)ethyl)-4-(difluoromethoxy)-1-((3-(2-fluoro-4-methylphenoxy)benzoyl)glycyl) pyrrolidine-2-carboxamide] the figure was less than 100 nM; with `O=C(NCC(=O)N1CC=C[C@H]1C(=O)NCc1cc2cnccc2[nH]1)c1ccc2c(c1)Oc1ccccc1S2` [Compound 261, (S)-N-((1H-pyrrolo[3,2-c]pyridin-2-yl)methyl)-1-((phenoxathiine-3-carbonyl)glycyl)-2,5-dihydro-1H-pyrrole-2-carboxamide], less than 100 nM; with `C[C@@H](NC(=O)[C@@H]1C[C@@H](OC(F)F)CN1C(=O)CNC(=O)c1ccc2c(c1)Oc1ccccc1S2)c1cc2cnccc2s1` [Compound 208, (2S,4R)-4-(difluoromethoxy)-1-((phenoxathiine-3-carbonyl)glycyl)-N-((R)-1-(thieno[3,2-c]pyridin-2-yl)ethyl)pyrrolidine-2-carboxamide], less than 100 nM.
With `C[C@@H](NC(=O)[C@@H]1C[C@@H](OC(F)F)CN1C(=O)CN1Cc2cc(-c3ccc(F)cc3F)ccc2C1=O)c1cc2cnccc2[nH]1` [Compound 91, (2S,4R)-N-((R)-1-(1H-pyrrolo[3,2-c]pyridin-2-yl)ethyl)-4-(difluoromethoxy)-1-(2-(5-(2,4-difluorophenyl)-1-oxoisoindolin-2-yl)acetyl)pyrrolidine-2-carboxamide], the IC50 was less than 100 nM.
With `C[C@@H](NC(=O)[C@@H]1C[C@@H](c2nccs2)CN1C(=O)CNC(=O)c1ccc2c(c1)Oc1ccccc1S2)c1cc2cnccc2[nH]1` [Compound 150, (2S,4R)-N-((R)-1-(1H-pyrrolo[3,2-c]pyridin-2-yl)ethyl)-1-((phenoxathiine-3-carbonyl)glycyl)-4-(thiazol-2-yl)pyrrolidine-2-carboxamide] the figure was less than 100 nM; with `C[C@@H](NC(=O)[C@@H]1C[C@@H](S(C)(=O)=O)CN1C(=O)CNC(=O)c1ccc(-c2ccccc2)cc1)c1cc2cnccc2[nH]1` [Compound 82, (2S,4R)-N-((R)-1-(1H-pyrrolo[3,2-c]pyridin-2-yl)ethyl)-1-(([1,1′-biphenyl]-4-carbonyl)glycyl)-4-(methylsulfonyl)pyrrolidine-2-carboxamide], 100 to 1000 nM; with `COC[C@@]12C[C@@H]1N(C(=O)CNC(=O)c1ccc3c(c1)Oc1ccccc1S3)[C@H](C(=O)N[C@H](C)c1cc3cnccc3[nH]1)C2` [Compound 191, (1S,3S,5R)-N-((R)-1-(1H-pyrrolo[3,2-c]pyridin-2-yl)ethyl)-5-(methoxymethyl)-2-((phenoxathiine-3-carbonyl)glycyl)-2-azabicyclo[3.1.0]hexane-3-carboxamide], less than 100 nM.
Regarding `C[C@@]12C[C@@H]1N(C(=O)CNC(=O)c1ccc3c(c1)Oc1ccccc1S3)[C@H](C(=O)NCc1ccc3nc(N)[nH]c3c1)C2` [Compound 181, (1S,3S,5S)-N-((2-amino-1H-benzo[d]imidazol-6-yl)methyl)-5-methyl-2-((phenoxathiine-3-carbonyl)glycyl)-2-azabicyclo[3.1.0]hexane-3-carboxamide], the IC50 was less than 100 nM.
Turning to `COC[C@H]1C[C@@H](C(=O)NCc2cc3cnccc3[nH]2)N(C(=O)CNC(=O)c2cccc(Oc3ccc(C)cc3F)c2)C1` [Compound 367, (2S,4S)-N-((1H-pyrrolo[3,2-c]pyridin-2-yl)methyl)-1-((3-(2-fluoro-4-methylphenoxy)benzoyl)glycyl)-4-(methoxymethyl)pyrrolidine-2-carboxamide], the IC50 is less than 100 nM.
As to `C[C@@H](NC(=O)[C@@H]1C[C@@H](OC(F)F)CN1C(=O)CNC(=O)c1ccc2c(c1)-c1ccccc1C2(F)F)c1cc2cnccc2s1` [Compound 207, (2S,4R)-1-((9,9-difluoro-9H-fluorene-3-carbonyl)glycyl)-4-(difluoromethoxy)-N-((R)-1-(thieno[3,2-c]pyridin-2-yl)ethyl)pyrrolidine-2-carboxamide], the IC50 was greater than 1000 nM.
`Cc1ccc(Oc2cccc(C(=O)NCC(=O)N3[C@H]4C[C@@]4(C)C[C@H]3C(=O)N[C@H](C)c3cc4cnccc4[nH]3)c2)c(F)c1` [Compound 320, (1S,3S,5S)-N-((R)-1-(1H-pyrrolo[3,2-c]pyridin-2-yl)ethyl)-2-((3-(2-fluoro-4-methylphenoxy)benzoyl)glycyl)-5-methyl-2-azabicyclo[3.1.0]hexane-3-carboxamide]: the IC50 was less than 100 nM.
